In brackets after ≈: the same amount, converted by molar mass. Like-named read-outs stand apart in the source and are kept apart here. Where a SMILES comes first, the peptide text is derived from it. Where no end group is shown, it is not given here. [ ]: non-standard residue; d: D form. ξ: configuration not given here. ξPhe(4-N(CH2CH2Cl)2) = NC(Cc1ccc(N(CCCl)CCCl)cc1)C(=O)O
Tests used:
[1] = Solubility assay in normal saline (HPLC); assay type: physicochemical; conditions: 37° C.
Method: Liquid chromatography detection conditions for melphalan: column: YMC-Pack ODS-A column (150×4.6 mm, 5 μm); mobile phase: 40% acetonitrile solution; flow rate: 0.7 mL/min; column temperature: 25° C.; detection wavelength: 260 nm; injection volume: 10 μL.
Solubility assay: melphalan 0.1 mg was accurately weighted and dispersed in 1 mL normal saline, ultrasonicated for 5 min, incubated at 37° C. for 24 hrs, and filtered through 0.22 μm filter membrane. The peak area of the sample was obtained by liquid chromatography. The concentration of the sample was calculated by substituting the peak area in the standard curve equation.
Liquid chromatography detection conditions for 89WP-Mel and 289WP-Mel: column: YMC-Pack ODS-A column (150×4.6 mm, 5 μm); mobile phase: 5-65% acetonitrile (with 0.1% TFA), 30 min; flow rate: 0.7 mL/min; column temperature: 25° C.; detection wavelength: 214 nm; injection volume: 10 μL.
Solubility assay: The excess amount of 89WP-Mel or 289WP-Mel was dispersed in 60 μL normal saline, ultrasonicated for 5 min, incubated at 37° C. for 24 hrs, filtered through 0.22 μm filter membrane, and then diluted 10 times and 20 times respectively. The peak area of the samples was obtained by liquid chromatography. The concentration of the samples was calculated by substituting the peak area in the standard curve equation.
The samples were incubated in normal saline at 37° C. and 160 rpm for 24 h to obtain the saturated solutions. The solubility of the conjugates is converted to the solubility of melphalan moiety.

[2] = system: HCEC cells; assay: cells; assay type: cell-based; conditions: 4 hrs co-incubation then 24 h fresh medium, MTT
Method: The survivals of the HCEC, ARPE-19 and WERI-Rb-1 cells after co-incubation with polypeptides or conjugates were investigated by the MTT or CCK-8 methods (n=4). The HCEC or ARPE-19 cells were co-incubated with polypeptides or conjugates for 4 hrs, followed by incubation in fresh medium for 24 h before addition of MTT for detection. The WERI-Rb-1 cells were co-incubated with the polypeptides or conjugates for 4 hrs, and then CCK-8 was added directly for detection. The cells under normal culture conditions were used as negative control (100% survival).
(§1) The ARPE-19 and WERI-Rb-1 cells with good growth status in the logarithmic phase were placed on 96 well plates at a density of 2000 cells/well. After incubation for 24 hrs, the drug solutions at different concentrations were added. The ARPE-19 cells were incubated at 37° C. for 4 hrs. Then, the drug solutions were discarded. The plates were washed with PBS thrice. The fresh medium was then added and incubated for 24 h. Then, 0.5 mg/mL MTT was added and incubated at 37° C. for 4 hrs. The culture solution was discarded. To each well DMSO (150 μl) was added, and the plates were shaken on a shaker for 20 min. Then, the OD490nm value was measured. For the WERI-Rb-1 cells, they were incubated with drug solutions for 4 hrs, and CCK-8 reagent (10 μL) was added to each well. The plates were incubated at 37° C. for 2 hrs. The OD490nm value was measured directly. In addition, zero_adjustment wells and negative control wells (cell survival rate 100%) were set.

[3] = system: ARPE-19 cells; assay type: cell-based; conditions: ARPE-19, 4 hrs co-incubation then 24 h fresh medium, MTT
Method: as §1

[4] = system: Fluc/GFP-Rb-1 cells; assay: Intraocular pharmacodynamic evaluation in tumor-bearing mice; assay type: in vivo
Method: Specifically, D-luciferin (150 mg/kg) was injected intraperitoneally into each mouse, followed by general anesthesia with isoflurane. Twenty minutes after anesthesia, ocular bioluminescence signals were collected, with 30 seconds exposure time. On the day of administration (D0) and at the corresponding time points after administration, the bioluminescence signals of the mice eyeballs in each group were collected. […] The whole brain tissue was harvested. The immunohistochemical sections were made and observed.

[5] = system: retinoblastoma (Fluc/GFP-Rb-1) cells; assay: Eye drops for treatment of intraocular retinoblastoma, mouse model; assay type: in vivo, Balb/c nude mice; conditions: for mice with obvious tumor areas in the brain sections: 8 mice per group
Method: Construction of retinoblastoma mouse model: the male Balb/c nude mice (18-20 g) were subjected to general anesthesia by intraperitoneal injection of amobarbital sodium (30 mg/kg). The 0.4% oxybuprocaine hydrochloride was administrated for local anesthesia of the eye surface. After the anesthesia, the 0.5% tropicamide was administrated for pupil dilation. The retinoblastoma (Fluc/GFP-Rb-1) cells (resuspended in 2 μL 10 mM PBS, 2×10^4 cells for each mouse) were slowly injected into the vitreous body near retina via a micro-syringe (33 G, Hamilton). After the injection, 0.25% chloramphenicol was dropped to the ocular surface to prevent ocular inflammation. Then, it is determined whether the model was successfully established according to the bioluminescent signal intensity in the eyes of the mice. The successfully established model mice were randomly divided into 4 groups, with 8 mice in each group.
During the 60-day pharmacodynamic evaluation experiment, the dosage regimens for the different mice groups are as follows: Group 1: eye dropping with normal saline once a day, 10 μL for each dropping; Group 2: eye dropping with 3.0 mg/mL melphalan solution once a day, 10 μL for each dropping; Group 3: eye dropping with 89WP-Mel solution (containing 3.0 mg/mL melphalan) once a day, 10 μL for each dropping; Group 4: intravitreal injection with 0.5 mg/mL melphalan solution once every two weeks, 2 μL for each injection.
The method of efficacy evaluation is as follows: on Day 0, 2, 4, 6, 9, 12, 15, 17, 20, 25 and 30 after the administration, the mice in each group were injected intraperitoneally with 150 mg/kg D-Luciferin, followed by anesthesia with isoflurane for 15 min. The bioluminescent signal intensity in the eyes of the mice was detected by IVIS Spectrum system (PerkinElmer, USA).

[6] = system: Fluc/GFP-Rb-1 cells; assay: In vivo safety evaluation in orthotopic tumor-bearing mouse model
Method: Before the experiments, the healthy male Balb/c-nude mice (4 weeks old) were subjected to ophthalmic examination to ensure the normal eyes. Amobarbital sodium (40 mg/kg) was injected intraperitoneally to the mice for general anesthesia, the commercially available 0.4% oxybuprocaine hydrochloride eye drops were administrated to the surface of the eyes for local anesthesia of the eye surface, and the commercially available 0.5% tropicamide eye drops were administrated for pupil dilation. The Fluc/GFP-Rb-1 cells (resuspended in 10 mM PBS at a density of 1×10^4 cells/μL) were injected into the vitreous body of the mice via a micro-syringe (33 G, Hamilton), 2 μL cell suspension for each eye.
For the tumor-bearing mice, administration was performed by ocular surface dropping.
Detection scheme: At the end of 1 month administration, the mice were euthanized by an overdose of anesthesia (anaobarbital sodium, 150 mg/kg). The cardiac perfusion was performed sequentially with normal saline and 4% paraformaldehyde. The eyeballs, hearts, liver, spleen, lung, kidney, brain and other organs were harvested and dehydrated overnight in 15% and 30% sucrose solutions gradient. The HE stained sections and immunohistochemical sections were made and observed.

[7] = system: HCEC cells; assay: Intracellular distribution by laser confocal microscope; assay type: cell-based; conditions: 3 μM, 37° C., 4 hrs
Method: (§2) The HCEC and ARPE-19 cells with good growth status in the logarithmic phase were placed in 4-chamber confocal dishes at a density of 1×10^4 cells/well and incubated for 24 hrs. The drug solutions (all comprising 3 μM fluorescein) were added and incubated at 37° C. for 3.5 hrs. LysoTracker was then added and incubated for 0.5 hrs. Then, the drug solutions were discarded. After being washed with cold 10 mM PBS (containing 0.02 mg/mL heparin sodium) thrice and fixed with 4% paraformaldehyde, the nuclei were stained with DAPI.

[8] = system: ARPE-19 cells; assay: as above; assay type: cell-based; conditions: ARPE-19, 3 μM, 37° C., 4 hrs
Method: as §2

[9] = Ocular pharmacokinetic evaluation after eye dropping; assay type: in vivo, mice
Method: The distribution and elimination behavior of the conjugates in the eye tissues was investigated by dropping the drugs into the conjunctival sac of the mice. The conjugate solution 10 μL (at a concentration of 30 μM) was dropped into the conjunctival sac of the mice. The eyelids were gently closed to make the solution distributed evenly. […] The eyeballs were taken out and fixed with FAS eyeball fixative solution for 24 hours, dehydrated with 15% and 30% sucrose solution gradients, and then embedded in OCT to prepare 8 μm thick eyeball frozen sections. The cell nuclei were stained with DAPI.

[10] = system: ARPE-19 cell monolayer; assay: Penetration across the retinal pigment epithelial cell monolayer model; conditions: four hours after administration, 3 μM
Method: The model in FIG. 8B is obtained by seeding the WERI-Rb-1 cells in good growth state at 2×10^4 cells/well in the lower chamber 24 hours before administration.
Samples (200 μL for each sampling) were taken every 0.5 h from the lower chamber, and 200 μL fresh D-Hank's balanced salt solution was added immediately. A total of 8 samples were taken. The fluorescence signal intensity of the samples was detected with a microplate reader (Ex 490 nm/Em 520 nm).
The calculation formula of the Apparent Permeability Coefficient (Papp) is as follows:
wherein, ΔQ/Δt is the change of the molar amount of the polypeptide across the retinal pigment epithelial cell monolayer model per unit time, which can be obtained from the slope by fitting the cumulative permeability and the diffusion time; C0 is the initial concentration of the polypeptide in the donor cell, which is 3 μM; A is the area of the cornea or sclera exposed to the diffusion medium, i.e., the effective diffusion area, which is 0.825 cm^2.

[11] = system: WERI-Rb-1 cells; assay type: cell-based; conditions: WERI-Rb-1, 4 hrs co-incubation, CCK-8
Method: as §1

[12] = Hematology safety evaluation (complete blood cell count); assay type: in vivo, ICR mice; conditions: eye dropping 2 times a day for 2 weeks
Method: Safety evaluation of 89WP-Mel eye drops: it is likely that the eye drops may be absorbed systemically, while the chemotherapeutic drug melphalan may cause systemic toxicity. The representative side effects include bone marrow suppression, etc. Thus, hematology evaluation was performed in the administration groups to determine the safety of the eye drops. Healthy male ICR mice (18-20 g) were subjected to the administration according to the regimen of pharmacodynamic evaluation experiment, wherein the frequency of eye dropping the normal saline, melphalan solution, and 89WP-Mel solution was changed to 2 times a day for 2 weeks, and the melphalan intravitreal injection was performed once a week. At the end of administration, 200 μL of whole blood was taken, anticoagulated with EDTA, and subjected to a complete blood cell count.

[13] = system: red blood cells; assay: Ability to lyse red blood cells at different pH; assay type: cell-based
Method: The red blood cells were resuspended at a density of 7×10^7 cells/mL in incubation medium at different pHs. The cell suspension (75 μL) was mixed with 75 μL of aqueous solution of test sample. Pure water was set as a negative control, and 1 μL Triton X-100 dissolved in 74 μL pure water was set as a positive control. Incubation was performed at 37° C. for 1 h in an air shaker at 200 rpm. After incubation, the samples were centrifugated at 1000 g for 5 min. The supernatant (100 μL) was taken to measure the OD450 nm/750 nm via microplate reader.

[14] = saline or isotonic, thermodynamic from solid, read-out: Solubility of drug
[15] = intravitreal injection 0.5 mg/mL
[16] = read-out: Solubility of drug-polypeptide conjugate
[17] = four hours after dropping, 30 μM

N[C@@H](Cc1ccc(N(CCCl)CCCl)cc1)C(=O)O [melphalan]
solubility at 24 h [1, 14]: < 0.001 mg/mL | solubility thermodynamic at 24 h [1, 14]: < 0.001 mg/mL | IC50 ([2]; listed as Mel): 113 µM | IC50 ([2]; Homo sapiens): 100 to 200 µM | IC50 [3]: 100 to 200 µM | IC50 ([3]; listed as Mel): 200 µM | mice with obvious brain tumor areas ([4]; eye dropping 3.0 mg/mL): one | tumor growth curve versus normal saline eye dropping group ([4]; eye dropping 10 μl once a day, 3.0 mg/mL melphalan content): no significant difference | mice with obvious brain tumor areas [4, 15]: two | survival period versus normal saline group ([4]; intravitreal injection 0.5 mg/mL, 2 μL, once per two weeks): no significant difference | mice with obvious tumor areas in the brain sections ([5]; eye dropping 3.0 mg/mL): 1 | anti-tumor effect in the first month of administration ([5]; eye drops once a day, 3.0 mg/mL melphalan content): no antitumor effect | mice with obvious tumor areas in the brain sections [5, 15]: 2 | size of the vitreous seeds of intraocular tumors, order of groups ([6]; melphalan solution 3.0 mg/mL eye dropping): normal saline group≈melphalan solution eye dropping group

CC[C@H](C)[C@H](NC(=O)[C@H](CCCCN)NC(=O)[C@@H](NC(=O)[C@H](Cc1c[nH]c2ccccc12)NC(=O)[C@@H](N)CCCNC(=N)N)[C@@H](C)CC)C(=O)N[C@@H](Cc1c[nH]c2ccccc12)C(=O)N[C@@H](Cc1ccccc1)C(=O)N[C@@H](Cc1c[nH]c2ccccc12)C(=O)N[C@@H](Cc1c[nH]c2ccccc12)C(=O)N[C@@H](CCCNC(=N)N)C(=O)N[C@@H](CCCNC(=N)N)C(=O)N[C@@H](CCSC)C(=O)N[C@@H](CCCCN)C(=O)N[C@@H](Cc1c[nH]c2ccccc12)C(=O)N[C@@H](CCCCN)C(=O)N[C@@H](CCCCN)C(=O)NC(Cc1ccc(N(CCCl)CCCl)cc1)C(=O)O (stereo partly drawn) [289WP-Mel] (H-RWIKIWFWWRRMKWKK[ξPhe(4-N(CH2CH2Cl)2)]-OH; N-terminus assumed)
solubility at 24 h [1, 16]: 41.8 ± 1.39 mg/mL (≈ 15.4 mM)

carboxyl fluorescein [FAM]
fluorescence signal in the cells [7]: no obvious green fluorescence signal | fluorescence signal in the cells [8]: no obvious green fluorescence signal | time of peak fluorescence intensity in the retina ([9]; 10 μL of 30 μM dropped into conjunctival sac): 4 h | retinal fluorescence intensity versus blank retina ([9]; 8 hours after eye dropping): no significant difference | fluorescence signal in anterior ocular segment (cornea), whole eye sections [9, 17]: no obvious green or red fluorescence signal | fluorescence signal in posterior ocular segment (retina), whole eye sections [9, 17]: no obvious green or red fluorescence signal | fluorescence signal at the donor side of the cell monolayer [10]: no green fluorescence signal

CC[C@H](C)[C@H](NC(=O)[C@H](CCCCN)NC(=O)[C@@H](NC(=O)[C@H](CCC(N)=O)NC(=O)[C@@H](N)CCCNC(=N)N)[C@@H](C)CC)C(=O)N[C@@H](Cc1c[nH]c2ccccc12)C(=O)N[C@@H](Cc1ccccc1)C(=O)N[C@@H](Cc1c[nH]c2ccccc12)C(=O)N[C@@H](Cc1c[nH]c2ccccc12)C(=O)N[C@@H](CCCNC(=N)N)C(=O)N[C@@H](CCCNC(=N)N)C(=O)N[C@@H](CCSC)C(=O)N[C@@H](CCCCN)C(=O)N[C@@H](Cc1c[nH]c2ccccc12)C(=O)N[C@@H](CCCCN)C(=O)N[C@@H](CCCCN)C(=O)NC(Cc1ccc(N(CCCl)CCCl)cc1)C(=O)O (stereo partly drawn) [89WP-Mel] (H-RQIKIWFWWRRMKWKK[ξPhe(4-N(CH2CH2Cl)2)]-OH)
solubility at 24 h [1, 16]: 44.7 ± 2.62 mg/mL (≈ 16.8 mM) | IC50 ([2]; read-out: IC50): 147 µM | IC50 ([3]; read-out: IC50): 177 µM | IC50 [11]: 0.28 µM | platelet count versus normal saline eye dropping group [12]: did not significantly decrease | red blood cell count versus normal saline eye dropping group [12]: did not significantly decrease | white blood cell count versus normal saline eye dropping group [12]: did not significantly decrease | safety by HE-stained sections of the various organs ([6]; eye dropping, 1 month): safe

RQIKIWFWWRRMKWKK [89WP]
hemolysis ratio ([13]; pH 5.5, 40 μM): 16.4% | hemolysis ratio ([13]; pH 5.5, 640 μM): 45.1% | hemolysis ratio ([13]; pH 6.0, 160 μM): 21.7% | hemolysis ratio ([13]; pH 6.0, 640 μM): 33.3% | hemolysis ratio ([13]; pH 7.4, 640 μM): 25.8% | hemolysis ratio ([13]; pH 7.4, low concentration (<320 μM)): around 10%

From patent publication US20250375528A1, “CONJUGATE OF CELL-PENETRATING PEPTIDE AND MELPHALAN, AND PREPARATION CONTAINING CONJUGATE” (priority 2021, published 2025)
